In patent publication US7381572B2, “Reagents and procedures for multi-label high-specificity labeling” (Rutgers, The State University of New Jersey, priority 2004, dated 2008):
Like-named read-outs stand apart in the source and are kept apart here. No end group written: not given here.

Assays:
tetracysteine peptide = conditions: initially non-fluorescent; Griffin, et al. Science (1998); cited from earlier work
[1] = Multicolor, multisite labeling, pairs of peptides: Cy5 detection; format: binding; conditions: pair of G1^0 with P3, P4, P5 or P6; both probes present; 5, 10, 20 mM DTT
Experimental: (§1) Multicolor, multisite labeling was assessed in electrophoretic-mobility-shift assays. Pairs of tetracysteine-tagged peptides—one neutral tetracysteine-tagged peptide, and one negatively-charged tetracysteine-tagged peptide (the charge difference resulting in different electrophoretic mobilities on the gel, thus allowing the two tetracysteine-tagged peptides to be distinguished)—were analyzed. For each combination of probe and pair of tetracysteine-tagged peptides, three reactions were performed in parallel: one reaction at 5 mM DTT, one reaction at 10 mM DTT, and one reaction at 20 mM DTT. […] DTT (1 μl of 50 mM DTT for reactions at 5 mM DTT, 1 μl of 100 mM DTT for reactions at 10 mM DTT, and 1 μl of 200 mM DTT for reactions at 20 mM DTT) was added, and samples were incubated 30 min at 25° C.

[2] = Multicolor, multisite labeling, pairs of peptides: FlAsH detection; format: binding; conditions: pair of G1^0 with the named peptide; both probes present; 5, 10, 20 mM DTT
Experimental: as §1

[3] = format: binding; conditions: excitation 488 nm, emission ≧680 nm
[4] = Tag-conjugate interaction found by the inventors: Cy3 derivatives; format: binding
[5] = Tag-conjugate interaction found by the inventors: Cy5 derivatives; format: binding
[6] = Tag-conjugate interaction found by the inventors: FlAsH-EDT2; format: binding
[7] = Tag-conjugate binding found by the inventors: Cy3 and Cy5 bis-propionamido-phenylarsine derivatives
[8] = Multicolor, multisite labeling of doubly-tetracysteine-tagged proteins (SARPs), crude lysate; format: binding, Escherichia coli; conditions: for FlAsH-Cy5 FRET within the resulting complex (SARP detection): excitation 488 nm, emission ≧680 nm; for co-labeling by FlAsH and Cy5-(SO3)2-(PAEDT)2: ~1 μM doubly-tagged protein
Experimental: Multicolor, multisite labeling of doubly-tetracysteine-tagged proteins—yielding self-assembled relay probes, SARPs—was assessed in electrophoretic-mobility-shift assays. DTT (1 μl of 125 mM solution) was added to 23 μl crude lysate containing doubly-tetracysteine-tagged protein (˜1 μM; Example 14.2), and samples were incubated 30 min at 25° C. Cy5-(SO3)2-(PAEDT)2 (Example 9.2; 0.5 μl of 1 mM solution in DMF) was added, and samples were incubated 20 min at 25° C. FlAsH (Griffin, et al. (2000) Methods Enzmol. 327, 565-578; 0.5 μl of 0.1 mM solution in DMF) was then added, and samples were further incubated 5 min at 25° C.

**Q.** For `O=C(O)c1ccccc1-c1c2ccc(=O)c([As]3SCCS3)c-2oc2c([As]3SCCS3)c(O)ccc12` [FlAsH-EDT2, 4′,5′-bis (1,3,2-dithioarsolan-2-yl)fluorescein], which “fluorescence on addition of a tetracysteine peptide to displace the EDT” value (tetracysteine peptide) is on record?
**A.** develops bright fluorescence

**Q.** Which “labeling by Cy5-(SO3)2-(PAEDT)2 in a pair of peptides” value (“labeling … of peptides” below) [1] does the source give for “Ac-EWNCCPPPCCN—CONH2 (Ac-EWNCCPPPCCN-NH2; cysteine pairing not given here) [P3]” here?
**A.** labeled

**Q.** And the “FlAsH labeling as % of the level of labeling of G1^0” value (“FlAsH labeling as %” below) [2]?
**A.** < 10%

**Q.** Which “FlAsH-Cy5 FRET within the resulting complex (SARP detection)” value [3] does the source give for “Ac-EWNCCPPPPCCN-AEAAAKEAAAKEAAAKEAAAKA-NCCGCCN—CONH2 [SARP-P4/G1-HL4X]” here?
**A.** participated in FlAsH-Cy5 FRET

**Q.** For “Ac-EWNCCPPPPCCN—CONH2 (Ac-EWNCCPPPPCCN-NH2; cysteine pairing not given here) [P4]”, which “labeling … of peptides” value [1] is on record?
**A.** labeled

**Q.** What about the “FlAsH labeling as %” value [2] of the same compound?
**A.** < 10%

**Q.** For “Ac-EWNCCPPPPCCN—PPPPPPPPPPPP—NCCGCCN—CONH2 [SARP-P4/G1-PP12]”, which “FlAsH-Cy5 FRET within the resulting complex (SARP detection)” value [3] is on record?
**A.** participated in FlAsH-Cy5 FRET

**Q.** With “Ac-EWNCCPPPPCCN—PPPPPPPPP—NCCGCCN—CONH2 [SARP-P4/G1-PP9]” as the compound, how does the “FlAsH-Cy5 FRET within the resulting complex (SARP detection)” value [3] read?
**A.** participated in FlAsH-Cy5 FRET

**Q.** With “Ac-EWNCCPPPPPCCN—CONH2 (Ac-EWNCCPPPPPCCN-NH2; cysteine pairing not given here) [P5]” as the compound, how does the “labeling … of peptides” value [1] read?
**A.** labeled

**Q.** And the “FlAsH labeling as %” value [2]?
**A.** < 10%

**Q.** Which “labeling … of peptides” value [1] does the source give for “Ac-EWNCCPPPPPPCCN—CONH2 (Ac-EWNCCPPPPPPCCN-NH2; cysteine pairing not given here) [P6]” here?
**A.** labeled

**Q.** What about the “FlAsH labeling as %” value [2] of the same compound?
**A.** < 10%

**Q.** Which “interaction of tag with Cy3 derivatives of conjugates according to Formula (I)” value [4] does the source give for “CCGPCC: tetracysteine peptide tag of the general form CCXXCC (target sequence)” here?
**A.** interact tightly

**Q.** What about the “interaction of tag with Cy5 derivatives of conjugates according to Formula (I)” value [5] of the same compound?
**A.** not interact, or interact less tightly

**Q.** What does the source list for CCPGPCC?
**A.** interaction of tag with FlAsH-EDT2 [6]: not interact substantially; binding of tag to Cy3 and Cy5 (bis-sulfonato) bis-propionamido-phenylarsine derivatives [7]: bind

**Q.** For “CCPPPCC (target sequence) [tetracysteine peptide tag of the form CC(P)nCC]”, which “interaction of tag with FlAsH-EDT2” value [6] is on record?
**A.** not interact substantially

**Q.** What about the “binding of tag to Cy3 and Cy5 (bis-sulfonato) bis-propionamido-phenylarsine derivatives” value (shortened to “binding of tag to Cy3 and Cy5”) [7] of the same compound?
**A.** bind

**Q.** What does the source list for “CCPPPPCC (target sequence) [tetracysteine peptide tag of the form CC(P)nCC]”?
**A.** interaction of tag with FlAsH-EDT2 [6]: not interact substantially; binding of tag to Cy3 and Cy5 (bis-sulfonato) bis-propionamido-phenylarsine derivatives [7]: bind

**Q.** For “CCPPPPPCC (target sequence) [tetracysteine peptide tag of the form CC(P)nCC]”, which “interaction of tag with FlAsH-EDT2” value [6] is on record?
**A.** not interact substantially

**Q.** And the “binding of tag to Cy3 and Cy5” value [7]?
**A.** bind

**Q.** Which “interaction of tag with FlAsH-EDT2” value [6] does the source give for “CCPPPPPPCC (target sequence) [tetracysteine peptide tag of the form CC(P)nCC]” here?
**A.** not interact substantially

**Q.** And the “binding of tag to Cy3 and Cy5” value [7]?
**A.** bind

**Q.** For “CGCGCGC (not fully specified (N-terminus, C-terminus); cysteine pairing not given here) [Ac—WNCGCGCGCN—CONH2, tag CGCGCGC; tested as the set A peptide that holds it]”, which “binding of tag to Cy5 bis-sulfonato bis-propionamido-phenylarsine or Cy5 bis-propionamido-phenylarsine” value [5] is on record?
**A.** bind

**Q.** And the “interaction of tag with FlAsH-EDT2” value [6]?
**A.** do not interact substantially

**Q.** Which “binding of tag to Cy5 bis-sulfonato bis-propionamido-phenylarsine or Cy5 bis-propionamido-phenylarsine” value [5] does the source give for CGPCCGPC [Ac—WNCGPCCGPCN—CONH2] here?
**A.** bind

**Q.** And the “interaction of tag with FlAsH-EDT2” value [6]?
**A.** do not interact substantially

**Q.** What does the source list for “α-CCPPPCC—PPPPPPPPP—CCGCCN [α-SARP-P3/G1-PP9]”?
**A.** specificity of co-labeling and FRET-dependent detection (other proteins labeled) [8]: no other protein in the crude lysate was detectably labeled; FlAsH-Cy5 FRET within the resulting complex (SARP detection) [8]: participated in FlAsH-Cy5 FRET; co-labeling by FlAsH and Cy5-(SO3)2-(PAEDT)2 [8]: co-labeled

**Q.** For “α-CCPPPPCC—PPPPPPPPP—CCGCCN [α-SARP-P4/G1-PP9]”, which “specificity of co-labeling and FRET-dependent detection (other proteins labeled)” value [8] is on record?
**A.** no other protein in the crude lysate was detectably labeled

**Q.** And the “FlAsH-Cy5 FRET within the resulting complex (SARP detection)” value [8]?
**A.** participated in FlAsH-Cy5 FRET

**Q.** And the “co-labeling by FlAsH and Cy5-(SO3)2-(PAEDT)2” value [8]?
**A.** co-labeled
